# In US9982005B2, “Macrolides and methods of their preparation and use” (President and Fellows of Harvard College, priority 2013, dated 2018):
# Like-named read-outs stand apart in the source and are kept apart here.
# Columns and labels:
# Assay type in all cases: cell-based
# [1] = system: HI175 H. influenzae ATCC49247; assay: broth dilution MIC, H. influenzae HI175; conditions: Haemophilus influenzae
# From the text: (§1) We have collected MIC data for a total of 50 novel macrolides that this platform has produced against over 21 unique strains of B. subtilis, E. coli, S. aureus, S. pneumoniae, and H. influenzae, including several multidrug-resistant strains, with a special focus on macrolide resistant mechanisms (vide supra). Azithromycin was included as a control macrolide. CLSI standard procedures for broth dilution MIC determination were used. […] These genotypes can be constitutive or inducible. The finding that C4-epi (unnatural) isomers of the “azaketolide” macrolide class have enhanced activities relative to C4 natural isomers is very exciting.
# [2] = system: BS1723 B. subtilis BS168 WT wild type; assay: broth dilution MIC, B. subtilis BS1723; conditions: Bacillus subtilis, BS1723 B. subtilis BS168 WT wild type; read-out: MIC
# How it was run: (§2)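 An azithromycin control accompanied the test macrolides, which were assayed by CLSI-standard broth microdilution-type MIC determination. Some strains carry constitutive or inducible macrolide-resistance genotypes.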
# [3] = system: Spn1509 S. pneumoniae ermB positive mefA negative; assay: broth dilution MIC, S. pneumoniae Spn1509; conditions: Streptococcus pneumoniae; Spn1509 S. pneumoniae ermB positive mefA negative; read-out: MIC
# From the text: as §1
# [4] = system: SA183 S. aureus ermA positive msrA unknown; assay: broth dilution MIC, S. aureus SA183; conditions: Staphylococcus aureus
# From the text: as §1
# [5] = system: Spn1533 S. pneumoniae ermB positive mefA positive; assay: broth dilution MIC, S. pneumoniae Spn1533; conditions: Streptococcus pneumoniae
# From the text: as §1
# [6] = system: H. influenzae strains; assay: MIC against H. influenzae strains (Table M8); conditions: Haemophilus influenzae
# How it was run: as §2
# [7] = system: BS1725 B. subtilis ermC; assay: broth dilution MIC, B. subtilis BS1725; conditions: Bacillus subtilis, BS1725 B. subtilis ermC (+ery)
# How it was run: as §2
# [8] = system: Spn 106 S. pneumonia ATCC49619; assay: broth dilution MIC, S. pneumoniae Spn 106; conditions: Streptococcus pneumoniae
# From the text: as §1
# [9] = system: E. faecalis strains; assay: MIC against E. faecalis strains (Table M8); conditions: Enterococcus faecalis, E. faecalis 29212
# [10] = system: K. pneumoniae strains; assay: MIC against K. pneumoniae strains (Table M8); conditions: Klebsiella pneumoniae, K. pneumoniae 10031
# [11] = system: EC882 E. coli imp; assay: broth dilution MIC, E. coli EC882; conditions: Escherichia coli
# How it was run: as §2
# [12] = system: S. pneumoniae strains; assay: MIC against S. pneumoniae strains (Tables M7, M8); conditions: Streptococcus pneumoniae
# From the text: CLSI standard procedures for broth dilution MIC determination were used. […] These genotypes can be constitutive or inducible.
# [13] = system: SA418 S. aureus ermA negative msrA positive; assay: broth dilution MIC, S. aureus SA418; conditions: Staphylococcus aureus
# From the text: as §1
# [14] = system: A. baumannii strains; assay: MIC against A. baumannii strains (Table M8); conditions: Acinetobacter baumannii, BAA747, A. baumannii BAA747-1
# [15] = system: SA101 S. aureus ATCC29213; assay: broth dilution MIC, S. aureus SA101; conditions: Staphylococcus aureus, ATCC29213, SA101 S. aureus ATCC29213; read-out: MIC
# How it was run: as §2
# [16] = system: HI281 H. influenzae; assay: broth dilution MIC, H. influenzae HI281; conditions: Haemophilus influenzae
# From the text: as §1
# [17] = system: SA506 S. aureus ermA positive msrA unknown; assay: broth dilution MIC, S. aureus SA506; conditions: Staphylococcus aureus
# From the text: as §1
# [18] = system: Spn1537 S. pneumoniae ermB positive mefA positive; assay: broth dilution MIC, S. pneumoniae Spn1537; conditions: Streptococcus pneumoniae
# From the text: as §1
# [19] = system: E. coli strains; assay: MIC against E. coli strains (Table M7); conditions: Escherichia coli, ATCC25922, E. coli ATCC 25922
# How it was run: as §2
# [20] = system: EC878 E. coli tolC; assay: broth dilution MIC, E. coli EC878; conditions: Escherichia coli
# How it was run: as §2
# [21] = system: Spn160 S. pneumoniae ermB unknown mefA positive; assay: broth dilution MIC, S. pneumoniae Spn160; conditions: Streptococcus pneumoniae
# From the text: as §1
# [22] = system: EC107 E. coli ATCC25922; assay: broth dilution MIC, E. coli EC107; conditions: Escherichia coli, read-out: MIC
# How it was run: as §2
# [23] = system: S. aureus strains; assay: MIC against S. aureus strains (Table M7); conditions: Staphylococcus aureus
# How it was run: as §2
# [24] = system: SA557 S. aureus ermA unknown msrA positive; assay: broth dilution MIC, S. aureus SA557; conditions: Staphylococcus aureus; SA557 S. aureus ermA unknown msrA positive; read-out: MIC
# From the text: as §1
# [25] = system: SA1708 S. aureus ermA positive msrA negative; assay: broth dilution MIC, S. aureus SA1708; conditions: Staphylococcus aureus
# From the text: as §1
# [26] = system: SA1707 S. aureus ermA negative msrA positive; assay: broth dilution MIC, S. aureus SA1707; conditions: Staphylococcus aureus
# From the text: as §1
# [27] = system: Spn1427 S. pneumoniae ermB positive mefA negative; assay: broth dilution MIC, S. pneumoniae Spn1427; conditions: Streptococcus pneumoniae
# From the text: as §1
# [28] = H. influenzae 49247, read-out: MIC H. influenzae (49247)
# [29] = H. influenzae 49766, read-out: MIC H. influenzae (49766)
# [30] = S. pneumoniae 160, read-out: MIC S. pneumonae (160)
# [31] = S. pneumoniae 1509, read-out: MIC S. pneumoniae (1509)
# [32] = S. pneumoniae 1533, read-out: MIC S. pneumoniae (1533)
# [33] = S. pneumoniae 1537, read-out: MIC S. pneumoniae (1537)
# [34] = ATCC29213, S. aureus ATCC 29213, read-out: MIC S. aureus (ATCC 29213)
# [35] = S. aureus 506, read-out: MIC S. aureus (506)
# [36] = S. aureus 1708, read-out: MIC S. aureus (1708)
# [37] = USA300, S. aureus USA300, read-out: MIC S. aureus (USA300)
structure (smiles),measurement,setting,value
CC[C@H]1OC(=O)[C@H](C)C(=O)[C@H](C)[C@@H](O[C@@H]2OC(C)CC(N(C)C)C2O)[C@](C)(OC)C[C@@H](C)CN[C@H](C)[C@H]2N(CCCCn3cc(-c4cccc(N)n4)nn3)C(=O)O[C@]12C (some centres unmarked) [FSM-20715],MIC,[1],2 µg/mL
same,MIC,[2],1 µg/mL
same,MIC,[3],0.5 to 2 µg/mL
same,MIC,[4],> 32 µg/mL
same,MIC,[5],> 32 µg/mL
same,MIC,[6]; [28],0.5 µg/mL
same,MIC,[6]; [29],2 µg/mL
same,MIC,[7],16 µg/mL
same,MIC,[8]; ATCC49619,0.0156 to 0.0312 µg/mL
same,MIC,[9],0.25 µg/mL
same,MIC,[10],2 µg/mL
same,MIC,[11],0.0312 µg/mL
same,MIC,[12]; [30],0.25 µg/mL
same,MIC,[12]; [31],2 µg/mL
same,MIC,[12]; [32],> 32 µg/mL
same,MIC,[12]; [33],> 32 µg/mL
same,MIC,"[12]; S. pneumoniae 49619, read-out: MIC S. pneumoniae (49619)",0.125 µg/mL
same,MIC,[13],2 µg/mL
same,MIC,[14],8 µg/mL
same,MIC,[15],1 to 2 µg/mL
same,MIC,[16],4 µg/mL
same,MIC,[17],> 32 µg/mL
same,MIC,[18],> 32 µg/mL
same,MIC,[19],8 µg/mL
same,MIC,[20],0.5 µg/mL
same,MIC,"[21]; Spn160 S. pneumoniae ermB unknown mefA positive, read-out: MIC",0.125 to 0.25 µg/mL
same,MIC,[22],4 µg/mL
same,MIC,[23]; [34],1 µg/mL
same,MIC,[23]; [35],> 32 µg/mL
same,MIC,[23]; [36],2 µg/mL
same,MIC,[23]; [37],2 µg/mL
same,MIC,[24],1 µg/mL
same,MIC,[25],2 µg/mL
same,MIC,[26],2 µg/mL
CC[C@H]1OC(=O)[C@H](C)C(=O)[C@H](C)[C@@H](O[C@@H]2OC(C)CC(N(C)C)C2O)[C@](C)(OC)C[C@@H](C)CN[C@H](C)[C@H]2N(CCCCn3cc(-c4ccccn4)nn3)C(=O)O[C@]12C (some centres unmarked) [FSM-20706],MIC,[1],0.5 to 2 µg/mL
same,MIC,[2],1 µg/mL
same,MIC,[3],0.5 to 2 µg/mL
same,MIC,[4],> 32 µg/mL
same,MIC,[27],> 32 µg/mL
same,MIC,[6]; [28],0.5 µg/mL
same,MIC,[6]; [29],2 µg/mL
same,MIC,[7],16 µg/mL
same,MIC,"[8]; Spn 106 S. pneumonia ATCC49619, read-out: MIC",0.0156 to 0.0312 µg/mL
same,MIC,[9],0.25 µg/mL
same,MIC,[10],4 µg/mL
same,MIC,[11],0.0625 µg/mL
same,MIC,[12]; [30],0.125 µg/mL
same,MIC,[12]; [31],4 µg/mL
same,MIC,[12]; [32],> 32 µg/mL
same,MIC,[12]; [33],> 32 µg/mL
same,MIC,[12]; read-out: MIC S. pneumoniae (49619),≤ 0.0625 µg/mL
same,MIC,[13],2 µg/mL
same,MIC,[14],32 µg/mL
same,MIC,[15],2 µg/mL
same,MIC,[16],4 µg/mL
same,MIC,[17],> 32 µg/mL
same,MIC,[18],> 32 µg/mL
same,MIC,[19],8 µg/mL
same,MIC,[20],0.5 µg/mL
same,MIC,[21],0.0625 to 0.125 µg/mL
same,MIC,[22],8 µg/mL
same,MIC,[23]; [34],2 µg/mL
same,MIC,[23]; [35],> 32 µg/mL
same,MIC,[23]; [36],1 µg/mL
same,MIC,[23]; [37],2 µg/mL
same,MIC,[24],2 µg/mL
same,MIC,[25],4 µg/mL
same,MIC,[26],4 µg/mL
